Data reported in ChEMBL document CHEMBL1201862, “PubChem BioAssay data set” (2004).
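Method: 48-hour compound exposure of cells in 96-well plates, five concentrations, linear interpolation of endpoints. GI50 is the concentration that inhibits growth by half.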 Activity calls are given as the source filed them. No stated cut-off is given here; in the data, active = GI50 up to about 1.1 µM and inactive = higher.

Columns and labels:
Test in all cases: inhibition of tumour cell growth, NCI panel, 48 h
M14 = tested on: M14
NCI-H23 = tested on: NCI-H23
SK-OV-3 = tested on: SK-OV-3
RXF 393 = tested on: RXF 393
KM12 = tested on: KM12
CAKI-1 = tested on: CAKI-1
MDA-MB-435 = tested on: MDA-MB-435
HCC 2998 = tested on: HCC 2998
MCF7 = tested on: MCF7
DU-145 = tested on: DU-145
SF-539 = tested on: SF-539
SR = tested on: SR
U-251 = tested on: U-251
ACHN = tested on: ACHN
SF-295 = tested on: SF-295
CCRF-CEM = tested on: CCRF-CEM
UACC-62 = tested on: UACC-62
MDA-MB-231 = tested on: MDA-MB-231
SW-620 = tested on: SW-620
RPMI-8226 = tested on: RPMI-8226

| SMILES | GI50 (M14) | GI50 (NCI-H23) | GI50 (SK-OV-3) | GI50 (RXF 393) | GI50 (KM12) | GI50 (CAKI-1) | GI50 (MDA-MB-435) | GI50 (HCC 2998) | GI50 (MCF7) | GI50 (DU-145) | GI50 (SF-539) | GI50 (SR) | GI50 (U-251) | GI50 (ACHN) | GI50 (SF-295) | GI50 (CCRF-CEM) | GI50 (UACC-62) | GI50 (MDA-MB-231) | GI50 (SW-620) | GI50 (RPMI-8226) |
| --- | --- | --- | --- | --- | --- | --- | --- | --- | --- | --- | --- | --- | --- | --- | --- | --- | --- | --- | --- | --- |
| O=C1C=CC2(C=C1)O[C@H](Cc1ccccc1)[C@@H](Cc1ccccc1)O2 | 0.653 µM (active) | 1.16 µM (inactive) | 5.85 µM (inactive) | 0.26 µM (active) | 1.69 µM (inactive) | 0.484 µM (active) | 1.31 µM (inactive) | 2.64 µM (inactive) | 0.256 µM (active) | 1.26 µM (inactive) | 0.37 µM (active) | 0.11 µM (active) | 1.05 µM (active) | 0.279 µM (active) | 2.17 µM (inactive) | 0.102 µM (active) | 1.66 µM (inactive) | 1.12 µM (active) | 0.137 µM (active) | 0.177 µM (active) |
| CO/N=C\c1cc(O)c(O)c(/C=N/OC)c1 | 33.3 µM (inactive) | 26.9 µM (inactive) | 29.1 µM (inactive) | 51.2 µM (inactive) | 38.8 µM (inactive) | 23.3 µM (inactive) | 50.5 µM (inactive) | 32.8 µM (inactive) | 29.3 µM (inactive) | 39.5 µM (inactive) | 27 µM (inactive) | 5.83 µM (inactive) | 34.1 µM (inactive) | 29.6 µM (inactive) | 48 µM (inactive) | 16 µM (inactive) | 38.8 µM (inactive) | 36.1 µM (inactive) | 36.6 µM (inactive) | 12.5 µM (inactive) |
| CC(=O)c1ccccc1NS(=O)(=O)c1ccc2nc(C)n(NS(=O)(=O)c3ccccc3C(C)=O)c(=O)c2c1 | > 100 µM (inactive) | > 100 µM (inactive) | > 100 µM (inactive) | > 100 µM (inactive) | > 100 µM (inactive) | > 100 µM (inactive) | > 100 µM (inactive) | > 100 µM (inactive) | > 100 µM (inactive) | > 100 µM (inactive) | > 100 µM (inactive) | > 100 µM (inactive) | > 100 µM (inactive) | > 100 µM (inactive) | > 100 µM (inactive) | > 100 µM (inactive) | > 100 µM (inactive) | > 100 µM (inactive) | > 100 µM (inactive) | > 100 µM (inactive) |
| CNCCN[C@@H]1c2cc3c(cc2[C@@H](c2cc(OC)c(O)c(OC)c2)[C@H]2C(=O)OC[C@@H]21)OCO3 | 0.394 µM (active) | 0.185 µM (active) | 0.264 µM (active) | 0.229 µM (active) | 0.406 µM (active) | 0.264 µM (active) | 1.66 µM (inactive) | 0.474 µM (active) | 0.0296 µM (active) | 0.27 µM (active) | 0.0678 µM (active) | 0.0122 µM (active) | 0.125 µM (active) | 0.106 µM (active) | 0.0973 µM (active) | 0.0138 µM (active) | 0.132 µM (active) | 0.37 µM (active) | 0.269 µM (active) | 0.0604 µM (active) |
| CCN(CC)CCNc1ccc2nnn3c4ccc(OC(C)=O)cc4c(=O)c1c23 | 6.64 µM (inactive) | 3.77 µM (inactive) | 7.35 µM (inactive) | 1.11 µM (active) | 3.15 µM (inactive) | 0.378 µM (active) | 5.15 µM (inactive) | 2.53 µM (inactive) | 2.16 µM (inactive) | 2.39 µM (inactive) | 1.67 µM (inactive) | 0.706 µM (active) | 2.22 µM (inactive) | 1.02 µM (active) | 4.51 µM (inactive) | 0.644 µM (active) | 11.4 µM (inactive) | 2.65 µM (inactive) | 1.11 µM (active) | 1.59 µM (inactive) |
| CC1=CCC2CC1NC(=O)CCOCCC(=O)NC2(C)C (stereo not given) | > 100 µM (inactive) | > 100 µM (inactive) | > 100 µM (inactive) | > 100 µM (inactive) | > 100 µM (inactive) | > 100 µM (inactive) | > 100 µM (inactive) | > 100 µM (inactive) | > 100 µM (inactive) | > 100 µM (inactive) | > 100 µM (inactive) | > 100 µM (inactive) | > 100 µM (inactive) | > 100 µM (inactive) | > 100 µM (inactive) | > 100 µM (inactive) | > 100 µM (inactive) | > 100 µM (inactive) | > 100 µM (inactive) | > 100 µM (inactive) |
